Assay results published in US20240400572A1, “COMPOUNDS AND METHODS FOR TREATING CANCERS THAT ARE MGMT DEFICIENT REGARDLESS OF MMR STATUS” (Yale University, priority 2021, published 2024).
“And” between values parts separate entries of the source, which are not always exact repeats. Equal values may be shown once. “Also recorded” adds a separate entry of the source. Read-outs that look alike come from different tables or passages of the source.

Columns and labels:
[1] = test system: four isogenic LN229 glioblastoma cell lines (MGMT+/−, MMR+/−); type: cell-based; conditions: LN229 MGMT+/−, MMR+/− cells; listed as N-methyl KL50
Brain distribution study = type: in vivo, male C57BL/6 mice
Procedure: Compound KL50 dosing solution: 3.39% DMSO+96.61% (10% HP-β-CD in saline) at 2 mg/mL; • 1) Weigh 17.39 mg of compound KL50 into a clean tube. • 2) Add 0.295 mL DMSO into the tube containing the compound. • 3) Vortex the tube for 3 min and sonicate it for 4 min. • 4) Add 8.400 mL 10% HP-β-CD in saline into the tube and vortex the tube for 3 min. Compound I-1 dosing solution: 3.39% DMSO+96.61% (10% HP-β-CD in saline) at 2 mg/mL; • 1) Weigh 16.86 mg Compound I-1 into a clean tube. • 2) Add 0.286 mL DMSO into the tube containing the compound. • 3) Vortex the tube for 3 min and sonicate it for 4 min. • 4) Add 8.144 mL 10% HP-β-CD in saline into the tube and vortex the tube for 3 min.
The in-vivo pharmacokinetic and brain distribution study was conducted under the following parameters. Twenty seven C57BL/6 male mice were purchased from Shanghai JiHui Laboratory Animal Co. LTD. Each mouse weighted from 16 g to 17 g. The mice were fasted overnight and fed post 4 hr sampling. Compound KL50 and Compound I-I were administered via oral gavage (PO) at a dose of 20 mg/kg (10 mL/kg). After dosing, sampling was completed at 0.083, 0.167, 0.333, 0.5, 0.75, 1, 2, 4 and 8 hr post dose, with three mice sacrificed at each time point.
Terminal bleeding for plasma and brain was completed at each time point. Approximately 110 μL blood per time point was collected into a K2EDTA tube via the facial vein. The blood sample was put on wet ice and centrifuged to obtain plasma sample (2000 g, 5 min under 4° C.) within 15 minutes. Plasma samples were acidified with 6 μL of formic acid for every 54 μL of plasma. After blood collection, a mid-line incision was made in the animal's scalp and the skin was retracted. The skull overlying the brain was removed. Then, the whole brain was collected, rinsed with cold saline, dried on filtrate paper, and weighed; and then snap frozen by placing the brain into dry-ice. Plasma samples were stored at approximately −70° C. until analysis. Brain tissue was homogenized with 3 volumes (v/w) of PBS (1% FA) and then analyzed with LC-MS/MS. The concentration of study drug was corrected with a dilution factor of four as following: Brain concentration=brain homogenate conc.×4, assuming 1 g wet brain tissue equals to 1 mL

[2] = PO 20 mg/kg, male C57BL/6 mice, 0.083 hr, 20 mg/kg
[3] = PO 20 mg/kg, male C57BL/6 mice, 0.167 hr, 20 mg/kg
[4] = PO 20 mg/kg, male C57BL/6 mice, 0.333 hr, 20 mg/kg
[5] = PO 20 mg/kg, male C57BL/6 mice, 0.5 hr, 20 mg/kg
[6] = PO 20 mg/kg, male C57BL/6 mice, 0.75 hr, 20 mg/kg
[7] = PO 20 mg/kg, male C57BL/6 mice, 1 hr, 20 mg/kg
[8] = PO 20 mg/kg, male C57BL/6 mice, 2 hr, 20 mg/kg
[9] = PO 20 mg/kg, male C57BL/6 mice, 4 hr
[10] = PO 20 mg/kg, male C57BL/6 mice, 8 hr
[11] = brain, PO 20 mg/kg, male C57BL/6 mice
[12] = mouse, brain, PO 20 mg/kg, male C57BL/6 mice

For CNC(=O)c1ncn2c(=O)n(CCF)nnc12 [Compound I-1, 3-(2-fluoroethyl)-N-methyl-4-oxo-3H,4H-imidazo[4,3-d][1,2,3,5]tetrazine-8-carboxamide], the “cytotoxicity and selectivity in the four isogenic cell lines (in words)” value [1] was “comparable to those for KL50 itself; also recorded: preferable toxicity for MGMT− cells compared to MGMT^+ cells, regardless of MMR status”, the “Brain Concentration/Plasma Concentration, Individuals” value (Brain distribution study; [2]) was 0.310 and 0.329 and the “brain Concentration, Individuals” value (Brain distribution study; [2]) was 6300 ng/g and 6740 ng/g. For the same compound, the “Brain Concentration/Plasma Concentration, Individuals” value (Brain distribution study; [3]) was 0.473 and 0.549, the “brain Concentration, Individuals” value (Brain distribution study; [3]) was 7100 ng/g and 9110 ng/g and the “Brain Concentration/Plasma Concentration, Individuals” value (Brain distribution study; [4]) was 0.606 and 0.651. For the same compound, the “brain Concentration, Individuals” value (Brain distribution study; [4]) was 6850 ng/g and 8730 ng/g, the “Brain Concentration/Plasma Concentration, Individuals” value (Brain distribution study; [5]) was 0.677 and 0.522 and the “brain Concentration, Individuals” value (Brain distribution study; [5]) was 4770 ng/g and 3750 ng/g. For the same compound, the “Brain Concentration/Plasma Concentration, Individuals” value (Brain distribution study; [6]) was 0.623 and 0.560, the “brain Concentration, Individuals” value (Brain distribution study; [6]) was 2500 ng/g and 1920 ng/g and the “Brain Concentration/Plasma Concentration, Individuals” value (Brain distribution study; [7]) was 0.626 and 0.527. The “brain Concentration, Individuals” value (Brain distribution study; [7]) was 952 ng/g and 1280 ng/g, the “Brain Concentration/Plasma Concentration, Individuals” value (Brain distribution study; [8]) was 0.483 and 0.490 and the “brain Concentration, Individuals” value (Brain distribution study; [8]) was 155 ng/g and 345 ng/g and 90.6 ng/g. The “brain Concentration, Individuals (below limit)” value (Brain distribution study; [9]) was “BQL (Below the quantifiable limit of 1.00 ng/mL or ng/g for Compound I-1 in mouse plasma and brain homogenate)”, the “brain Concentration, Mean (below limit)” value (Brain distribution study; [9]) was “BQL (Below the quantifiable limit of 1.00 ng/mL or ng/g for Compound I-1 in mouse plasma and brain homogenate)” and the “brain Concentration, Individuals (below limit)” value (Brain distribution study; [10]) was “BQL (Below the quantifiable limit of 1.00 ng/mL or ng/g for Compound I-1 in mouse plasma and brain homogenate)”. For the same compound, the “brain Concentration, Mean (below limit)” value (Brain distribution study; [10]) was “BQL (Below the quantifiable limit of 1.00 ng/mL or ng/g for Compound I-1 in mouse plasma and brain homogenate)”, the AUCINF (Brain distribution study; [11]) was 4849 ng·h/g and the AUClast (Brain distribution study; [11]) was 4749 ng·h/g. It also gave a concentration at 0.083 hr (Brain distribution study; male, C57BL/6, mouse, brain, po, 20 mg/kg, PO 20 mg/kg, male C57BL/6 mice, 0.083 hr, N=3, read-out: brain Concentration, Mean) of 6300 ng/g, a concentration at 0.083 hr (Brain distribution study; male, C57BL/6, mouse, brain, po, 20 mg/kg, PO 20 mg/kg, male C57BL/6 mice, 0.083 hr, read-out: brain Concentration, Individuals) of 5860 ng/g and a concentration at 0.167 hr (Brain distribution study; male, C57BL/6, mouse, brain, po, 20 mg/kg, PO 20 mg/kg, male C57BL/6 mice, 0.167 hr, N=3, read-out: brain Concentration, Mean) of 7210 ng/g. For the same compound, the concentration at 0.167 hr (Brain distribution study; male, C57BL/6, mouse, brain, po, 20 mg/kg, PO 20 mg/kg, male C57BL/6 mice, 0.167 hr, read-out: brain Concentration, Individuals) was 5420 ng/g, the concentration at 0.333 hr (Brain distribution study; male, C57BL/6, mouse, brain, po, 20 mg/kg, PO 20 mg/kg, male C57BL/6 mice, 0.333 hr, N=3, read-out: brain Concentration, Mean) was 6840 ng/g and the concentration at 0.333 hr (Brain distribution study; male, C57BL/6, mouse, brain, po, 20 mg/kg, PO 20 mg/kg, male C57BL/6 mice, 0.333 hr, read-out: brain Concentration, Individuals) was 4950 ng/g. The concentration at 0.5 hr (Brain distribution study; male, C57BL/6, mouse, brain, po, 20 mg/kg, PO 20 mg/kg, male C57BL/6 mice, 0.5 hr, N=3, read-out: brain Concentration, Mean) was 3940 ng/g, the concentration at 0.5 hr (Brain distribution study; male, C57BL/6, mouse, brain, po, 20 mg/kg, PO 20 mg/kg, male C57BL/6 mice, 0.5 hr, read-out: brain Concentration, Individuals) was 3310 ng/g and the concentration at 0.75 hr (Brain distribution study; male, C57BL/6, mouse, brain, po, 20 mg/kg, PO 20 mg/kg, male C57BL/6 mice, 0.75 hr, N=3, read-out: brain Concentration, Mean) was 2240 ng/g. The concentration at 0.75 hr (Brain distribution study; male, C57BL/6, mouse, brain, po, 20 mg/kg, PO 20 mg/kg, male C57BL/6 mice, 0.75 hr, read-out: brain Concentration, Individuals) was 2290 ng/g, the concentration at 1 hr (Brain distribution study; male, C57BL/6, mouse, brain, po, 20 mg/kg, PO 20 mg/kg, male C57BL/6 mice, 1 hr, N=3, read-out: brain Concentration, Mean) was 1120 ng/g and the concentration at 1 hr (Brain distribution study; male, C57BL/6, mouse, brain, po, 20 mg/kg, PO 20 mg/kg, male C57BL/6 mice, 1 hr, read-out: brain Concentration, Individuals) was 1140 ng/g. The concentration at 2 hr (Brain distribution study; male, C57BL/6, mouse, brain, po, 20 mg/kg, PO 20 mg/kg, male C57BL/6 mice, 2 hr, N=3, read-out: brain Concentration, Mean) was 197 ng/g, the Kp (Brain distribution study; male, C57BL/6, mouse, brain/plasma, po, 20 mg/kg, AUCbrain/AUCplasma, PO 20 mg/kg, male C57BL/6 mice, heading: AUCbrain/AUCplasma) was 49.1% and the Kp at 0.083 hr (Brain distribution study; male, C57BL/6, mouse, brain/plasma, po, 20 mg/kg, PO 20 mg/kg, male C57BL/6 mice, 0.083 hr, N=3, read-out: Brain Concentration/Plasma Concentration, Mean) was 0.305. The Kp at 0.083 hr (Brain distribution study; male, C57BL/6, mouse, brain/plasma, po, 20 mg/kg, PO 20 mg/kg, male C57BL/6 mice, 0.083 hr, read-out: Brain Concentration/Plasma Concentration, Individuals) was 0.276, the Kp at 0.167 hr (Brain distribution study; male, C57BL/6, mouse, brain/plasma, po, 20 mg/kg, PO 20 mg/kg, male C57BL/6 mice, 0.167 hr, N=3, read-out: Brain Concentration/Plasma Concentration, Mean) was 0.501 and the Kp at 0.167 hr (Brain distribution study; male, C57BL/6, mouse, brain/plasma, po, 20 mg/kg, PO 20 mg/kg, male C57BL/6 mice, 0.167 hr, read-out: Brain Concentration/Plasma Concentration, Individuals) was 0.48. For the same compound, the Kp at 0.333 hr (Brain distribution study; male, C57BL/6, mouse, brain/plasma, po, 20 mg/kg, PO 20 mg/kg, male C57BL/6 mice, 0.333 hr, N=3, read-out: Brain Concentration/Plasma Concentration, Mean) was 0.606, the Kp at 0.333 hr (Brain distribution study; male, C57BL/6, mouse, brain/plasma, po, 20 mg/kg, PO 20 mg/kg, male C57BL/6 mice, 0.333 hr, read-out: Brain Concentration/Plasma Concentration, Individuals) was 0.561 and the Kp at 0.5 hr (Brain distribution study; male, C57BL/6, mouse, brain/plasma, po, 20 mg/kg, PO 20 mg/kg, male C57BL/6 mice, 0.5 hr, N=3, read-out: Brain Concentration/Plasma Concentration, Mean) was 0.575. For the same compound, the Kp at 0.5 hr (Brain distribution study; male, C57BL/6, mouse, brain/plasma, po, 20 mg/kg, PO 20 mg/kg, male C57BL/6 mice, 0.5 hr, read-out: Brain Concentration/Plasma Concentration, Individuals) was 0.525, the Kp at 0.75 hr (Brain distribution study; male, C57BL/6, mouse, brain/plasma, po, 20 mg/kg, PO 20 mg/kg, male C57BL/6 mice, 0.75 hr, N=3, read-out: Brain Concentration/Plasma Concentration, Mean) was 0.586 and the Kp at 0.75 hr (Brain distribution study; male, C57BL/6, mouse, brain/plasma, po, 20 mg/kg, PO 20 mg/kg, male C57BL/6 mice, 0.75 hr, read-out: Brain Concentration/Plasma Concentration, Individuals) was 0.575. The Kp at 1 hr (Brain distribution study; male, C57BL/6, mouse, brain/plasma, po, 20 mg/kg, PO 20 mg/kg, male C57BL/6 mice, 1 hr, N=3, read-out: Brain Concentration/Plasma Concentration, Mean) was 0.559, the Kp at 1 hr (Brain distribution study; male, C57BL/6, mouse, brain/plasma, po, 20 mg/kg, PO 20 mg/kg, male C57BL/6 mice, 1 hr, read-out: Brain Concentration/Plasma Concentration, Individuals) was 0.523 and the Kp at 2 hr (Brain distribution study; male, C57BL/6, mouse, brain/plasma, po, 20 mg/kg, PO 20 mg/kg, male C57BL/6 mice, 2 hr, N=3, read-out: Brain Concentration/Plasma Concentration, Mean) was 0.468. The Kp at 2 hr (Brain distribution study; male, C57BL/6, mouse, brain/plasma, po, 20 mg/kg, PO 20 mg/kg, male C57BL/6 mice, 2 hr, read-out: Brain Concentration/Plasma Concentration, Individuals) was 0.432, the Cmax (Brain distribution study; [12]) was 7210 ng/g and the MRT inf (Brain distribution study; [12]) was 31.6 min. The Tmax (Brain distribution study; [12]) was 10 min, the half-life (Brain distribution study; [12]) was 21.1 min and the “concentration in brain tissue compared with KL50 (in words)” value (Brain distribution study; oral administration to mice) was “much larger concentration in brain tissue”.
